The subject of the data set is GENE-TOX genotoxicity assays, various organisms and cells. Kind of data set: GENE-TOX mutagenicity studies. To be noted: for call: Assay Type: In vivo carcinogenicity studies.
The mark [1] stands for this setting: Species/Cell Type: Mammalian polychromatic erythrocytes, Assay Type: Micronucleus test, chromosome aberrations, Assay Code: MNT+, Evaluation Type: Evaluation A (Pre-1980).
[2] abbreviates: Species/Cell Type: Mouse, Sex: Male, Assay Type: Sperm morphology, Assay Code: SPI-, Evaluation Type: Evaluation A (Pre-1980).
Where [3] appears, read: Species/Cell Type: Nonhuman, Assay Code: CCG+, Evaluation Type: Evaluation A (Pre-1980).
[4] abbreviates: Species/Cell Type: Salmonella typhimurium (one or more of the five standard strains: TA98, TA100, TA1535, TA1537, and TA1538), Assay Type: Histidine reverse gene mutation, Ames assay, Assay Code: SAL-, Evaluation Type: Evaluation A (Pre-1980).
The mark [5] stands for this setting: Species/Cell Type: Nonhuman, Assay Type: Sister-chromatid exchange (SCE) in vivo, Assay Code: SC3T, Evaluation Type: Evaluation B (Post-1980).
Setting [6] is: Species/Cell Type: Saccharomyces cerevisiae, Assay Type: Mitotic recombination or gene conversion, Assay Code: YEH+, Evaluation Type: Evaluation A (Pre-1980).
[7] abbreviates: Species/Cell Type: Saccharomyces cerevisiae, Assay Type: Reverse gene mutation, Assay Code: YER+, Evaluation Type: Evaluation A (Pre-1980).

Molecules are shown by their SMILES. Activity calls are given as the source filed them. No rule for the calls is given here.

Turning to `CCOC(N)=O`, the mutagenic call was “inactive; negative” (Species/Cell Type: Drosophila melanogaster, Assay Type: Aneuploidy, sex chromosome gain, chromosome aberrations, Assay Code: DAG-M, Evaluation Type: Evaluation A (Pre-1980)); “active; positive” (Species/Cell Type: Drosophila melanogaster, Assay Type: Aneuploidy, whole sex chromosome loss, chromosome aberrations, Assay Code: DAC+M, Evaluation Type: Evaluation A (Pre-1980)); “active; positive” (Species/Cell Type: Drosophila melanogaster, Assay Type: Sex-linked recessive lethal gene mutation, Assay Code: SRL+, Evaluation Type: Evaluation A (Pre-1980)); “active; positive” (Species/Cell Type: Drosophila melanogaster, Sex: Male, Assay Type: Heritable translocation test, chromosome aberrations, Assay Code: DHT+, Evaluation Type: Evaluation A (Pre-1980)); “inactive; negative” (Species/Cell Type: Escherichia coli WP2, Assay Type: Tryptophan reverse gene mutation, Assay Code: WP2-, Evaluation Type: Evaluation A (Pre-1980)); “inactive; negative” (Species/Cell Type: Escherichia coli polA (W3110 vs P3478), Assay Type: Rec-assay, DNA effects (bacterial DNA repair), Assay Code: RE2-, Evaluation Type: Evaluation A (Pre-1980)). The mutagenic call runs as follows: (Species/Cell Type: Escherichia coli polA (W3119 vs P3478), Assay Type: Rec-assay, DNA effects (bacterial DNA repair), Assay Code: RE1T, Evaluation Type: Evaluation A (Pre-1980)) “no conclusion”; (Species/Cell Type: Fischer rat embryo (RLV/1706) cells, Assay Type: Cell transformation, viral enhanced, Assay Code: CTR+, Evaluation Type: Evaluation A (Pre-1980)) “active; positive”; (Species/Cell Type: Human diploid fibroblasts, Assay Type: Unscheduled DNA synthesis (UDS) in vitro, DNA effects, Assay Code: UDHT, Evaluation Type: Evaluation A (Pre-1980)) “no conclusion”; (Species/Cell Type: Human lymphocytes, Assay Type: Sister-chromatid exchange (SCE) in vitro, Assay Code: SCL+D, Dose Response: With dose response, Evaluation Type: Evaluation B (Post-1980)) “active; positive”; (Species/Cell Type: Human, Assay Type: Sister-chromatid exchange (SCE) in vitro, Assay Code: SC1+D, Dose Response: With dose response, Evaluation Type: Evaluation B (Post-1980)) “active; positive”; under setting [1], “active; positive”. Also, the mutagenic call runs as follows: (Species/Cell Type: Mouse embryo (AKR/ME) cells, Assay Type: Cell transformation, Assay Code: CTK+, Evaluation Type: Evaluation A (Pre-1980)) “active; positive”; under setting [2], “inactive; negative”; (Species/Cell Type: Neurospora crassa, Assay Type: Reverse gene mutation, Assay Code: NER+, Evaluation Type: Evaluation A (Pre-1980)) “active; positive”; (Species/Cell Type: Nonhuman, Assay Type: Sister-chromatid exchange (SCE) in vitro, Assay Code: SC2+D, Dose Response: With dose response, Evaluation Type: Evaluation A (Pre-1980)) “active; positive”; (Species/Cell Type: Nonhuman, Assay Type: Sister-chromatid exchange (SCE) in vivo, Assay Code: SC3+D, Dose Response: With dose response, Evaluation Type: Evaluation B (Post-1980)) “active; positive”; (Species/Cell Type: Saccharomyces cerevisiae, Assay Type: Mitotic recombination or gene conversion, Assay Code: YEC+, Evaluation Type: Evaluation A (Pre-1980)) “active; positive”. Also, the mutagenic call reads like this: (Species/Cell Type: Saccharomyces cerevisiae, Assay Type: Mitotic recombination or gene conversion, Assay Code: YEH-*, Activation: With metabolic activation, Evaluation Type: Evaluation A (Pre-1980)) “inactive; negative”; under setting [4], “inactive; negative”; (Species/Cell Type: Salmonella typhimurium, Assay Type: Forward and reverse gene mutation, host-mediated assay, Assay Code: HMA-, Evaluation Type: Evaluation A (Pre-1980)) “inactive; negative”; (Species/Cell Type: Syrian hamster embryo (SHE) cells, Assay Type: Cell transformation, clonal assay, Assay Code: CTC+*, Activation: With metabolic activation, Evaluation Type: Evaluation A (Pre-1980)) “active; positive”. Under setting [3], the call was “active; positive”.
Consider `O=S1(=O)CC=CC1`, for which, where the note is “Species/Cell Type: Nonhuman, Assay Code: CCG-, Evaluation Type: Evaluation A (Pre-1980)”, the call is “inactive; negative”.
For `CC1=CC(=C(c2ccc(N)cc2)c2ccc(N)cc2)C=CC1=N`, the mutagenic call (Species/Cell Type: Bacillus subtilis (H17 vs M45), Assay Type: Rec-assay, spot test, DNA effects (bacterial DNA repair), Assay Code: REWT, Evaluation Type: Evaluation A (Pre-1980)) is reported as “no conclusion”.
For `CN(C)c1ccc(C(=C2C=CC(=[N+](C)C)C=C2)c2c(O)c(S(=O)(=O)[O-])cc3cc(S(=O)(=O)O)ccc23)cc1`, under “Species/Cell Type: Saccharomyces cerevisiae, Assay Type: Mitotic recombination or gene conversion, Assay Code: YEC-, Evaluation Type: Evaluation A (Pre-1980)”, the mutagenic call was “inactive; negative”.
For `COc1c2occc2cc2ccc(=O)oc12`, the mutagenic call was “inactive; negative” (Species/Cell Type: Aspergillus nidulans, Assay Type: Aneuploidy, chromosome aberrations, Assay Code: ASN-, Evaluation Type: Evaluation A (Pre-1980)); “no conclusion” (Species/Cell Type: Aspergillus nidulans, Assay Type: Forward gene mutation, Assay Code: ASFT, Evaluation Type: Evaluation A (Pre-1980)); “active; positive” (Species/Cell Type: Human lymphocytes, Assay Type: Sister-chromatid exchange (SCE) in vitro, Assay Code: SCL+, Evaluation Type: Evaluation B (Post-1980)); “no conclusion” (Species/Cell Type: Human lymphocytes, Assay Type: Sister-chromatid exchange (SCE) in vitro, Assay Code: SCLT, Evaluation Type: Evaluation A (Pre-1980)); “active; positive” (Species/Cell Type: Human, Assay Type: Sister-chromatid exchange (SCE) in vitro, Assay Code: SC1+, Evaluation Type: Evaluation B (Post-1980)); “no conclusion” (Species/Cell Type: Human, Assay Type: Sister-chromatid exchange (SCE) in vitro, Assay Code: SC1T, Evaluation Type: Evaluation A (Pre-1980)). Besides, the mutagenic call (Species/Cell Type: Nonhuman, Assay Type: Sister-chromatid exchange (SCE) in vitro, Assay Code: SC2T, Evaluation Type: Evaluation A (Pre-1980)) is recorded as “no conclusion”; the mutagenic call under setting [5] was “no conclusion”; the mutagenic call under setting [6] was “active; positive”; the mutagenic call under setting [7] was “active; positive”; the mutagenic call (Species/Cell Type: Salmonella typhimurium (one or more of the five standard strains: TA98, TA100, TA1535, TA1537, and TA1538), Assay Type: Histidine reverse gene mutation, Ames assay, Assay Code: SALT, Evaluation Type: Evaluation A (Pre-1980)) is on record as “no conclusion”. Moreover, the call (Species/Cell Type: Nonhuman, Assay Code: CCGT, Evaluation Type: Evaluation A (Pre-1980)) is on record as “no conclusion”.
With `O=[N+]([O-])[O-].O=[N+]([O-])[O-].[Cd+2]`, the mutagenic call (Species/Cell Type: Bacillus subtilis (H17 vs M45), Assay Type: Rec-assay, spot test, DNA effects (bacterial DNA repair), Assay Code: REW+, Evaluation Type: Evaluation A (Pre-1980)) was “active; positive”.
As for `S=[Se]=S`, the call under setting [3] is “active; positive”.
`O=NN1CCNC1=S`: the mutagenic call is “no conclusion” (Species/Cell Type: Mammalian polychromatic erythrocytes, Assay Type: Micronucleus test, chromosome aberrations, Assay Code: MNTT, Evaluation Type: Evaluation A (Pre-1980)); “active; positive” (Species/Cell Type: Nonhuman, Assay Type: Sister-chromatid exchange (SCE) in vitro, Assay Code: SC2+D, Dose Response: With dose response, Evaluation Type: Evaluation B (Post-1980)); “inactive; negative” (Species/Cell Type: Rodents, Sex: Male, Assay Type: Dominant lethal test, Assay Code: DLT-, Evaluation Type: Evaluation A (Pre-1980)).
As for `NCCc1c[nH]c2ccc(O)cc12` (tested in a mixture with another compound), the mutagenic call by setting is: (Species/Cell Type: Drosophila melanogaster, Assay Type: Aneuploidy, whole sex chromosome loss, chromosome aberrations, Assay Code: DACTM, Evaluation Type: Evaluation A (Pre-1980)) “no conclusion”; (Species/Cell Type: Drosophila melanogaster, Sex: Male, Assay Type: Heritable translocation test, chromosome aberrations, Assay Code: DHTT, Evaluation Type: Evaluation A (Pre-1980)) “no conclusion”.
For `COC(=O)/C=C(\C)CCCC(C)(Cl)CCCC(C)(C)Cl` (stereo not given), the mutagenic call (Species/Cell Type: Drosophila melanogaster, Assay Type: Sex-linked recessive lethal gene mutation, Assay Code: SRLT, Evaluation Type: Evaluation A (Pre-1980)) is “no conclusion”.
For `Nc1nc(N)c2nc(CNc3ccc(C(=O)N[C@@H](CCC(=O)O)C(=O)O)cc3)cnc2n1`, the mutagenic call under setting [1] is “active; positive”; the mutagenic call (Species/Cell Type: Mouse, Sex: Male, Assay Type: Sperm morphology, Assay Code: SPI+, Evaluation Type: Evaluation A (Pre-1980)) was “active; positive”; the mutagenic call (Species/Cell Type: Neurospora crassa, Assay Type: Aneuploidy, chromosome aberrations, Assay Code: NEN-, Evaluation Type: Evaluation A (Pre-1980)) was “inactive; negative”; the mutagenic call under setting [6] was “active; positive”.
Regarding `CCCCCCCCCCCCCC(=O)N(C)N=O`, the mutagenic call under setting [7] is “active; positive”.
With `Cc1cc(-c2cc(C)c(N)c(C)c2)cc(C)c1N`, the mutagenic call runs as follows: (Species/Cell Type: Human diploid fibroblasts, Assay Type: Unscheduled DNA synthesis (UDS) in vitro, DNA effects, Assay Code: UDH-*, Activation: With metabolic activation, Evaluation Type: Evaluation A (Pre-1980)) “inactive; negative”; (Species/Cell Type: Human, Assay Type: Sister-chromatid exchange (SCE) in vitro, Assay Code: SC1-, Evaluation Type: Evaluation B (Post-1980)) “inactive; negative”; under setting [1], “active; positive”; under setting [2], “inactive; negative”; (Species/Cell Type: Nonhuman, Assay Type: Sister-chromatid exchange (SCE) in vitro, Assay Code: SC2+, Evaluation Type: Evaluation B (Post-1980)) “active; positive”; under setting [5], “no conclusion”. Moreover, the mutagenic call under setting [4] is “inactive; negative” and the mutagenic call (Species/Cell Type: Tradescantia species, Assay Type: Gene mutation, Assay Code: TRM+D, Dose Response: With dose response, Evaluation Type: Evaluation A (Pre-1980)) is “active; positive”.
In the case of `CCOc1ccccc1[N+](=O)[O-]`, where the note is “Species/Cell Type: Salmonella typhimurium (one or more of the five standard strains: TA98, TA100, TA1535, TA1537, and TA1538), Assay Type: Histidine reverse gene mutation, Ames assay, Assay Code: SAL+, Evaluation Type: Evaluation A (Pre-1980)”, the mutagenic call was “active; positive”.

The record behind these values is PubChem BioAssay AID1259408 (Genetic Toxicology Data Bank (GENE-TOX), 2018).
